What follows are compounds tested against Beta-secretase 1 (Homo sapiens, UniProt P56817) (assay: Inhibition of human recombinant BACE1 by FRET assay).
Sequence of Beta-secretase 1 (P56817 whole entry): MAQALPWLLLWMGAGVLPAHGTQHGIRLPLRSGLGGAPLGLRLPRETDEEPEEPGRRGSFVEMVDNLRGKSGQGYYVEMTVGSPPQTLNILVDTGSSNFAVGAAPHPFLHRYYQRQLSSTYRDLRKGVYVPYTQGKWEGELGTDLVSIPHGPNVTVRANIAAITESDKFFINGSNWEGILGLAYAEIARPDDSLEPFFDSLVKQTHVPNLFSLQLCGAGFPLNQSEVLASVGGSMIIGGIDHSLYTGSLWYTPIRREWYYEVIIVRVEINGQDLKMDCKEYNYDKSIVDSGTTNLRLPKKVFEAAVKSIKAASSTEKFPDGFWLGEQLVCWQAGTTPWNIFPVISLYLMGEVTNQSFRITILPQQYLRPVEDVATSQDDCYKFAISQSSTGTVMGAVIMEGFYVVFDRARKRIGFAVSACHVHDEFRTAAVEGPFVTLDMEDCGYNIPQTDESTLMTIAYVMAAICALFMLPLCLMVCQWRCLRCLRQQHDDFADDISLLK
Work on `O=C(Nc1nc2ccncc2[nH]1)c1ccc2c(c1)Nc1ccccc1NC2=O` yielded a Ki of 309 nM. Compound `C[C@@H](NC(=O)c1cc(NS(C)(=O)=O)cc(C(=O)N[C@@H](Cc2ccccc2)[C@@H](O)CNC2CC2)c1)c1ccc(F)cc1` has a Ki of 10 nM. `O=C(Nc1ccc(F)cc1)c1ccc2c(c1)Nc1ccccc1NC2=O` was tested, and the Ki was 211 nM. `O=C(Nc1nc(-c2ccncc2)c[nH]1)c1ccc2c(c1)Nc1ccccc1NC2=O` showed a Ki of 348 nM. Work on `O=C(Nc1nc(-c2ccc(F)cc2)c[nH]1)c1ccc2c(c1)Nc1ccccc1NC2=O` yielded a Ki of 293 nM. `O=C(Nc1ccncc1)c1ccc2c(c1)Nc1ccccc1NC2=O` showed a Ki of 295 nM. Work on `O=C(Nc1nc2ccc(F)cc2[nH]1)c1ccc2c(c1)Nc1ccccc1NC2=O` yielded a Ki of 244 nM.
